Measured values taken from patent US20250129430A1, “HIGH ATP-AFFINITY PROTEIN AS THERAPEUTIC TARGET FOR INTRACTABLE CANCER MOLECULAR SUBTYPES AND INHIBITOR THEREOF” (VeraVerse Co., Ltd., priority 2021, published 2025).

Tests used:
Assay type in all cases: cell-based, human
[1] = system: non-SEM-type gastric cancer cell line; test: Cell viability drug screen, AUC summary over non-SEM-type lines; settings: in the non-SEM-type gastric cancer cell line
[2] = system: FU97; test: Cell viability drug screen, 12-point dose-response AUC; set-up: Average Area Under the Viability Curve (AUC), AUC norm value: scale not given here
In short: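 Trapezoidal AUC of a 12-point, DMSO-normalized dose-response curve. Luminescent viability was measured after 72 h of exposure at 37° C to half-log serial dilutions (0.5% DMSO control), dosed 24 h after plating FU97 cells at 5×10^3 per well.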

[3] = system: NCI_N87; test: as above
In short: (§1)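 AUC comes from 12-point half-log dose–response curves, normalized to DMSO-treated cells and integrated trapezoidally, repeats averaged. Luminescent viability read after 72 h compound exposure at 37 °C; cells plated 5×10^3 per well 24 h before dosing.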

[4] = system: SNU638; test: as above
In short: as §1

[5] = system: SNU216; test: as above
In short: (§2)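 Viability: luminescence (Glo kit, 15 min RT), normalized to 0.5% DMSO vehicle. Dosing: half-log, 12 concentrations, 72 h. Cells: 5×10^3/well, treated 24 h after plating. Value: trapezoidal AUC, mean of repeats.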

[6] = system: MKN1; test: as above
In short: as §1

[7] = system: SNU668; test: as above
In short: as §1

[8] = system: KATO3; test: as above
In short: as §1

[9] = system: SNU620; test: as above
In short: as §1

[10] = system: SNU484; test: as above
In short: as §1

[11] = system: SNU1750; test: as above
In short: as §1

[12] = system: MKN45; test: as above
In short: as §2

[13] = system: NCC59; test: as above
In short: as §1

[14] = system: OCUM1; test: as above
In short: as §1

[15] = system: YCC2; test: as above
In short: as §1

[16] = system: SK4; test: as above
In short: as §1

[17] = system: SNU16; test: as above
In short: as §1

[18] = system: YCC3; test: as above
In short: as §1

[19] = system: SNU719; test: as above
In short: as §2

[20] = system: AGS; test: as above
In short: as §2

[21] = system: NCC19; test: as above
In short: as §1

[22] = system: SNU1; test: as above
In short: as §1

[23] = system: MKN28; test: as above
In short: as §1

[24] = system: NCC20; test: as above
In short: as §1

[25] = system: MKN74; test: as above
In short: as §2

[26] = system: YCC11; test: as above
In short: as §1

[27] = system: Hs746T; test: as above
In short: as §1

[28] = system: SNU601; test: as above
In short: as §1

[29] = system: SNU1967; test: as above
In short: as §1

[30] = system: NCC24; test: as above
In short: as §1

With `[O-][n+]1ccccc1[S-].[O-][n+]1ccccc1[S-].[Zn+2]` [PYRITHIONE ZINC, Pyrithione zinc] the AUC value [1] was “high”, the “area under the viability curve (AUC), normalized” value (“area … normalized” for short) [2] was 0.3344 and the “area … normalized” value [3] was 1.161. The “area … normalized” value [4] was −0.08685, the “area … normalized” value [5] was −0.2272 and the “area … normalized” value [6] was −0.4913. The “area … normalized” value [7] was 0.7681, the “area … normalized” value [8] was 0.8219 and the “area … normalized” value [9] was −0.7817. For the same compound, the “area … normalized” value [10] was −0.9287, the “area … normalized” value [11] was 0.1011 and the “area … normalized” value [12] was −1.0871. For the same compound, the “area … normalized” value [13] was 0.7288, the “area … normalized” value [14] was 0.5355 and the “area … normalized” value [15] was −0.08387. For the same compound, the “area … normalized” value [16] was 0, the “area … normalized” value [17] was 1.28 and the “area … normalized” value [18] was 0.6512. For the same compound, the “area … normalized” value [19] was 1.547, the “area … normalized” value [20] was −0.9355 and the “area … normalized” value [21] was 0.7336. The “area … normalized” value [22] was 1.431, the “area … normalized” value [23] was 0.1421 and the “area … normalized” value [24] was −0.7838. The “area … normalized” value [25] was −1.149, the “area … normalized” value [26] was −1.337 and the “area … normalized” value [27] was −0.541. The “area … normalized” value [28] was 2.666, the “area … normalized” value [29] was −0.5027 and the “area … normalized” value [30] was −0.309.
`CCCCCCCCCCCCCCCC[N+](C)(C)CCN(Cc1ccc(OC)cc1)c1ncccn1` [Thonzonium Bromide] was tested, and the AUC value [1] was “high”, the “Average Area Under the Viability Curve (AUC), AUC norm value” (“Average Area Under the Viability Curve” below) ([2]; FU97 cells, 72 hours) was −0.03008 and the “Average Area Under the Viability Curve” value ([3]; NCI_N87 cells, 72 hours) was 0.415. The “Average Area Under the Viability Curve” value ([4]; SNU638 cells, 72 hours) was −0.4973, the “Average Area Under the Viability Curve” value ([5]; SNU216 cells (non-SEM subtype), 72 hours) was 0.2737 and the “Average Area Under the Viability Curve” value ([6]; MKN1 cells, 72 hours) was −0.2414. For the same compound, the “Average Area Under the Viability Curve” value ([7]; SNU668 cells (SEM subtype), 72 hours) was 0.3151, the “Average Area Under the Viability Curve” value ([8]; KATO3 cells, 72 hours) was −0.127 and the “Average Area Under the Viability Curve” value ([9]; SNU620 cells, 72 hours) was −0.2404. The “Average Area Under the Viability Curve” value ([10]; SNU484 cells (SEM subtype), 72 hours) was −0.9082, the “Average Area Under the Viability Curve” value ([11]; SNU1750 cells (SEM subtype), 72 hours) was 0.06729 and the “Average Area Under the Viability Curve” value ([12]; MKN45 cells (non-SEM subtype), 72 hours) was 0.1213. For the same compound, the “Average Area Under the Viability Curve” value ([13]; NCC59 cells, 72 hours) was 0.6096, the “Average Area Under the Viability Curve” value ([14]; OCUM1 cells, 72 hours) was 0.2209 and the “Average Area Under the Viability Curve” value ([15]; YCC2 cells, 72 hours) was −0.4255. For the same compound, the “Average Area Under the Viability Curve” value ([16]; SK4 cells (SEM subtype), 72 hours) was −1.033, the “Average Area Under the Viability Curve” value ([17]; SNU16 cells, 72 hours) was −0.9128 and the “Average Area Under the Viability Curve” value ([18]; YCC3 cells, 72 hours) was 0.6163. The “Average Area Under the Viability Curve” value ([19]; SNU719 cells, 72 hours) was 1.9, the “Average Area Under the Viability Curve” value ([20]; AGS cells (non-SEM subtype), 72 hours) was −0.4105 and the “Average Area Under the Viability Curve” value ([21]; NCC19 cells, 72 hours) was 0.2995. For the same compound, the “Average Area Under the Viability Curve” value ([22]; SNU1 cells, 72 hours) was 1.478, the “Average Area Under the Viability Curve” value ([23]; MKN28 cells, 72 hours) was 0.07021 and the “Average Area Under the Viability Curve” value ([24]; NCC20 cells, 72 hours) was −0.6042. The “Average Area Under the Viability Curve” value ([25]; MKN74 cells, 72 hours) was −0.9967, the “Average Area Under the Viability Curve” value ([26]; YCC11 cells (SEM subtype), 72 hours) was −0.8304 and the “Average Area Under the Viability Curve” value ([27]; Hs746T cells (SEM subtype), 72 hours) was 0. For the same compound, the “Average Area Under the Viability Curve” value ([28]; SNU601 cells, 72 hours) was 2.228, the “Average Area Under the Viability Curve” value ([29]; SNU1967 cells, 72 hours) was 0.01501 and the “Average Area Under the Viability Curve” value ([30]; NCC24 cells, 72 hours) was −0.2465.
